# Assay results taken from patent publication US10316017B2, “COT modulators and methods of use thereof” (Gilead Sciences, Inc., priority 2015, dated 2019).
# Where two headings read alike, the source gives them in different places.
# Experiments:
# [1] = target: T1, human Cot catalytic domain (30-397 amino acids) (Homo sapiens, UniProt P41279); test: High Throughput Cot Biochemical Assay (KinEASE TR-FRET); conditions: Cot KinEASE TR-FRET, 400 μM ATP; read-out: IC50 HTRF
# T1 construct: Purified recombinant human Cot catalytic domain (30-397 amino acids) was purchased from Cama Biosciences; purchased Cama Biosciences (so in the source)
# T1 sequence (P41279 30-397): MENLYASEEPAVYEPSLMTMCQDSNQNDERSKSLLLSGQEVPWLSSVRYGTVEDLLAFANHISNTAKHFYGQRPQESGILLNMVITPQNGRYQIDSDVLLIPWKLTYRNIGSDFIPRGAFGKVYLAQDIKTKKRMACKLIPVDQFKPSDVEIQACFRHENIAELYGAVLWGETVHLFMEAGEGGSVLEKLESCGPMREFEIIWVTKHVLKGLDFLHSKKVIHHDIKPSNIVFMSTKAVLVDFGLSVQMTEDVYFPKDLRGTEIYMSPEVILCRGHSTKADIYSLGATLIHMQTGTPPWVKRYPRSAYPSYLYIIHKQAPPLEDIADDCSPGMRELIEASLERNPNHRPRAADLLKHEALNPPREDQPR
# How it was run: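 TR-FRET (KinEASE) read-out: Eu-labelled phospho-specific antibody binds XL665-tagged STK3 peptide (1 μM) phosphorylated by 5 nM human Cot kinase domain (residues 30-397). Reaction at 400 μM ATP, pH 7.0 MOPS buffer with 10 mM MgOAc, 1 mM DTT and 0.1% DMSO.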
# [2] = system: TNFα production in LPS-stimulated human monocytes; test: Cot Monocyte TNFα Cell Based Assay; conditions: LPS-stimulated human monocytes, TNFα TR-FRET, read-out: EC50 TNF
# How it was run: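 TNFα release quantified by two-antibody TR-FRET, normalised to unstimulated (0%) and LPS-stimulated (100%) wells. Cells got a 1 h compound exposure at 37° C in 0.5% DMSO before 4 h challenge with 50 pg/ml LPS, at 5,000 cells/well.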
IC50 [1],EC50 [2],"EC50 ([2]; Homo sapiens, Monocyte)",Compound
5 nM,66 nM,–,"Cc1c(C#N)cccc1[C@H](Nc1cc(C#N)c2ncc(C#N)c(NCC(C)(C)C(F)(F)F)c2c1)c1cn(C2(C(F)F)CC2)nn1 [Example 1126, (S)-6-(((3-cyano-2-methylphenyl)(1-(1-(difluoromethyl)cyclopropyl)-1H-1,2,3-triazol-4-yl)methyl)amino)-4-((3,3,3-trifluoro-2,2-dimethylpropyl)amino)quinoline-3,8-dicarbonitrile]"
13 nM,–,221 nM,"Cc1c(F)cccc1[C@H](Nc1cc(C#N)c2ncc(C#N)c(NCC(C)(C)C)c2c1)c1cn(C2(C(F)(F)F)CC2)nn1 [Example 1127, (S)-6-(((3-fluoro-2-methylphenyl)(1-(1-(trifluoromethyl)cyclopropyl)-1H-1,2,3-triazol-4-yl)methyl)amino)-4-(neopentylamino)quinoline-3,8-dicarbonitrile]"
9 nM,–,307 nM,"CC(C)(C)CNc1c(C#N)cnc2c(C#N)cc(N[C@@H](c3cccc(C4(C#N)CC4)c3)c3cn(C4(C(F)(F)F)CC4)nn3)cc12 [Example 1128, (S)-6-(((3-(1-cyanocyclopropyl)phenyl)(1-(1-(trifluoromethyl)cyclopropyl)-1H-1,2,3-triazol-4-yl)methy;)amino)-4-(neopentylamino)quinoline-3,8-dicarbonitrile]"
5 nM,–,148 nM,"CC(C)(C)CNc1c(C#N)cnc2c(C#N)cc(N[C@@H](c3cccc(C4(C#N)CC4)c3)c3cn(C45CC(C4)C5)nn3)cc12 [Example 1129, (S)-6-(((1-(bicyclo[1.1.1]pentan-1-yl)-1H-1,2,3-triazol-4-yl)(3-(1-cyanocyclopropyl)phenyl)methyl)amino)-4-(neopentylamino)quinoline-3,8-dicarbonitrile]"
10 nM,–,103 nM,"CC(C)(C)CNc1c(C#N)cnc2c(C#N)cc(N[C@@H](c3ccc(F)cc3)c3cn(C45CC(C4)C5)nn3)cc12 [Example 1130, (S)-6-(((1-(bicyclo[1.1.1]pentan-1-yl)-1H-1,2,3-triazol-4-yl)(4-fluorophenyl)methyl)amino)-4-(neopentylamino)quinoline-3,8-dicarbonitrile]"
3 nM,–,38 nM,"Cc1c(-c2cnco2)cccc1[C@H](Nc1cc(C#N)c2ncc(C#N)c(NCC(C)(C)C)c2c1)c1cn(C2(C(F)(F)F)CC2)nn1 [Example 1131, (S)-6-(((2-methyl-3-(oxazol-5-yl)phenyl)(1-(1-(trifluoromethyl)cyclopropyl)-1H-1,2,3-triazol-4-yl)methyl)amino)-4-(neopentylamino)quinoline-3,8-dicarbonitrile]"
8 nM,–,175 nM,"Cc1c(-c2cc[nH]n2)cccc1[C@H](Nc1cc(C#N)c2ncc(C#N)c(NCC(C)(C)C)c2c1)c1cn(C2(C(F)(F)F)CC2)nn1 [Example 1132, (S)-6-(((2-methyl-3-(1H-pyrazol-3-yl)phenyl)(1-(1-(trifluoromethyl)cyclopropyl)-1H-1,2,3-triazol-4-yl)methyl)amino)-4-(neopentylamino)quinoline-3,8-dicarbonitrile]"
4 nM,–,27 nM,"Cc1c(-c2cn[nH]c2)cccc1[C@H](Nc1cc(C#N)c2ncc(C#N)c(NCC(C)(C)C)c2c1)c1cn(C2(C(F)(F)F)CC2)nn1 [Example 1133, (S)-6-(((2-methyl-3-(1H-pyrazol-4-yl)phenyl)(1-(1-(trifluoromethyl)cyclopropyl)-1H-1,2,3-triazol-4-yl)methyl)amino)-4-(neopentylamino)quinoline-3,8-dicarbonitrile]"
2 nM,–,57 nM,"Cc1c(-c2ccnnc2)cccc1[C@H](Nc1cc(C#N)c2ncc(C#N)c(NCC(C)(C)C)c2c1)c1cn(C2(C(F)(F)F)CC2)nn1 [Example 1134, (S)-6-(((2-methyl-3-(pyridazin-4-yl)phenyl)(1-(1-(trifluoromethyl)cyclopropyl)-1H-1,2,3-triazol-4-yl)methyl)amino)-4-(neopentylamino)quinoline-3,8-dicarbonitrile]"
2 nM,–,44 nM,"Cc1c(-c2cncn2C)cccc1[C@H](Nc1cc(C#N)c2ncc(C#N)c(NCC(C)(C)C)c2c1)c1cn(C2(C(F)(F)F)CC2)nn1 [Example 1135, (S)-6-(((2-methyl-3-(1-methyl-1H-imidazol-5-yl)phenyl)(1-(1-(trifluoromethyl)cyclopropyl)-1H-1,2,3-triazol-4-yl)methyl)amino)-4-(neopentylamino)quinoline-3,8-dicarbonitrile]"
4 nM,–,128 nM,"Cc1c(-c2cccnc2)cccc1[C@H](Nc1cc(C#N)c2ncc(C#N)c(NCC(C)(C)C)c2c1)c1cn(C2(C(F)(F)F)CC2)nn1 [Example 1136, (S)-6-(((2-methyl-3-(pyridin-3-yl)phenyl)(1-(1-(trifluoromethyl)cyclopropyl)-1H-1,2,3-triazol-4-yl)methyl)amino)-4-(neopentylamino)quinoline-3,8-dicarbonitrile]"
5 nM,–,70 nM,"Cc1c(-c2ccncc2)cccc1[C@H](Nc1cc(C#N)c2ncc(C#N)c(NCC(C)(C)C)c2c1)c1cn(C2(C(F)(F)F)CC2)nn1 [Example 1137, (S)-6-(((2-methyl-3-(pyridin-4-yl)phenyl)(1-(1-(trifluoromethyl)cyclopropyl)-1H-1,2,3-triazol-4-yl)methyl)amino)-4-(neopentylamino)quinoline-3,8-dicarbonitrile]"
4 nM,–,61 nM,"Cc1c(-c2cnn(C)c2)cccc1[C@H](Nc1cc(C#N)c2ncc(C#N)c(NCC(C)(C)C)c2c1)c1cn(C2(C(F)(F)F)CC2)nn1 [Example 1138, (S)-6-(((2-methyl-3-(1-methyl-1H-pyrazol-4-yl)phenyl)(1-(1-(trifluoromethyl)cyclopropyl)-1H-1,2,3-triazol-4-yl)methyl)amino)-4-(neopentylamino)quinoline-3,8-dicarbonitrile]"
13 nM,–,82 nM,"Cc1cc(C#N)ccc1[C@H](Nc1cc(C#N)c2ncc(C#N)c(NCC(C)(C)C)c2c1)c1cn(C2(C(F)F)CC2)nn1 [Example 1139, (S)-6-(((4-cyano-2-methylphenyl)(1-(1-(difluoromethyl)cyclopropyl)-1H-1,2,3-triazol-4-yl)methyl)amino)-4-(neopentylamino)quinoline-3,8-dicarbonitrile]"
22 nM,–,119 nM,"Cc1cc(C#N)ccc1[C@H](Nc1cc(C#N)c2ncc(C#N)c(NCC(C)(C)C)c2c1)c1cn(C2(C(F)(F)F)CC2)nn1 [Example 1140, (S)-6-(((4-cyano-2-methylphenyl)(1-(1-(trifluoromethyl)cyclopropyl)-1H-1,2,3-triazol-4-yl)methyl)amino)-4-(neopentylamino)quinoline-3,8-dicarbonitrile]"
2 nM,–,69 nM,"Cc1c(-c2ccncc2)cccc1[C@H](Nc1cc(C#N)c2ncc(C#N)c(NCC(C)(C)C)c2c1)c1cn(C2(C(F)F)CC2)nn1 [Example 1141, (S)-6-(((1-(1-(difluoromethyl)cyclopropyl)-1H-1,2,3-triazol-4-yl)(2-methyl-3-(pyridin-4-yl)phenyl)methyl)amino)-4-(neopentylamino)quinoline-3,8-dicarbonitrile]"
2 nM,–,31 nM,"Cc1c(-c2cnn(C)c2)cccc1[C@H](Nc1cc(C#N)c2ncc(C#N)c(NCC(C)(C)C)c2c1)c1cn(C2(C(F)F)CC2)nn1 [Example 1142, (S)-6-(((1-(1-(difluoromethyl)cyclopropyl)-1H-1,2,3-triazol-4-yl)(2-methyl-3-(1-methyl-1H-pyrazol-4-yl)phenyl)methyl)amino)-4-(neopentylamino)quinoline-3,8-dicarbonitrile]"
7 nM,–,239 nM,"Cc1c(-c2ccn(C)n2)cccc1[C@H](Nc1cc(C#N)c2ncc(C#N)c(NCC(C)(C)C)c2c1)c1cn(C2(C(F)(F)F)CC2)nn1 [Example 1143, (S)-6-(((2-methyl-3-(1-methyl-1H-pyrazol-3-yl)phenyl)(1-(1-(trifluoromethyl)cyclopropyl)-1H-1,2,3-triazol-4-yl)methyl)amino)-4-(neopentylamino)quinoline-3,8-dicarbonitrile]"
11 nM,–,379 nM,"Cc1c(-c2ccccn2)cccc1[C@H](Nc1cc(C#N)c2ncc(C#N)c(NCC(C)(C)C)c2c1)c1cn(C2(C(F)(F)F)CC2)nn1 [Example 1144, (S)-6-(((2-methyl-3-(pyridin-2-yl)phenyl)(1-(1-(trifluoromethyl)cyclopropyl)-1H-1,2,3-triazol-4-yl)methyl)amino)-4-(neopentylamino)quinoline-3,8-dicarbonitrile]"
5 nM,–,99 nM,"Cc1c(-c2cn(C)cn2)cccc1[C@H](Nc1cc(C#N)c2ncc(C#N)c(NCC(C)(C)C)c2c1)c1cn(C2(C(F)(F)F)CC2)nn1 [Example 1145, (S)-6-(((2-methyl-3-(1-methyl-1H-imidazol-4-yl)phenyl)(1-(1-(trifluoromethyl)cyclopropyl)-1H-1,2,3-triazol-4-yl)methyl)amino)-4-(neopentylamino)quinoline-3,8-dicarbonitrile]"
2 nM,–,33 nM,"Cc1c(C#N)cccc1[C@H](Nc1cc(C#N)c2ncc(C#N)c(NCC(C)(C)C(F)(F)F)c2c1)c1cn(C2(C)CC2)nn1 [Example 1146, (S)-6-(((3-cyano-2-methylphenyl)(1-(1-methylcyclopropyl)-1H-1,2,3-triazol-4-yl)methyl)amino)-4-((3,3,3-trifluoro-2,2-dimethylpropyl)amino)quinoline-3,8-dicarbonitrile]"
